Article PMC3486420, “In Vitro and In Vivo Characterizations of Chiglitazar, a Newly Identified PPAR Pan-Agonist” (PPAR Research, 2012)

Columns and labels:
KKAy mice = experiment: Oral treatment of diabetic KKAy mice (glucose, body weight); assay type: in vivo, mouse
Description: Male db/db mice (BKS.Cg-m +/+ LEPR^db) in 6-7 weeks were purchased from The Jackson Laboratory (Bar Harbor, ME, USA). Male KKAy and C57BL/6J mice in 8–10 weeks were obtained from the Institute of Animal Science, Chinese Academy of Medical Sciences and Peking Union Medical College (Beijing, China). Animals were randomly sorted into different treatment groups (8–10 per group). […] Plasma glucose levels were examined at various time points by Accu-Chek Advantage II Glucose Strips (Roche Diagnostics, Basel, Switzerland) and measured by Accu-Chek Advantage (Roche Diagnostics). Animals were sacrificed 24 h after the last dosing and abdominal fat pad, liver, and skeletal muscle from KKAy mice and abdominal fat pad from db/db mice were taken for gene expression analysis.
Figure 2 In vivo effects on blood glucose control and insulin sensitization of chiglitazar. […] Plasma glucose (a and b) and insulin (c) levels were measured at the indicated time points. […] Data are expressed as mean ± SE.
Figure 4 Influence in body and abdominal fat pad weights of chiglitazar. […] Changes in body weight were evaluated at the indicated days (b), and the fat pads were weighed from the scarified animals at day 15 (c). ^# P < 0.05 compared with day 0, and *P < 0.05 compared with Ctrl. n = 8 per group for KKAy, and n = 10 per group for db/db. Data are expressed as mean ± SE.

PPARα = molecular target: T1, PPARα (Homo sapiens, UniProt Q07869); experiment: PPARα transactivation reporter gene assay in U2OS cells; assay type: cell-based
T1 sequence (Q07869 1-468): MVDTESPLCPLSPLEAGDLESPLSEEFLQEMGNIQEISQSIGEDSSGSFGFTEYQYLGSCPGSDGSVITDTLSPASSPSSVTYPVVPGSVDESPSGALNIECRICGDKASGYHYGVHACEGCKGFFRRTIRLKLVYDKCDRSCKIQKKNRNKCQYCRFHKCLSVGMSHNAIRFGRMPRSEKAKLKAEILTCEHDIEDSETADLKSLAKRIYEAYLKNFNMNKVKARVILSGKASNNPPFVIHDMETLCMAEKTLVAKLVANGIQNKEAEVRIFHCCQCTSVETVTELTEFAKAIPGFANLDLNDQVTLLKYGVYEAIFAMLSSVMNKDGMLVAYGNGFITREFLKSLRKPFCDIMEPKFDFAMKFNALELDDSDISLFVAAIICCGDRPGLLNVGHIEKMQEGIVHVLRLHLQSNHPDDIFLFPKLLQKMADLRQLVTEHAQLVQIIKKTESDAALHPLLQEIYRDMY
T1 sequence (P19793 1-462 partner): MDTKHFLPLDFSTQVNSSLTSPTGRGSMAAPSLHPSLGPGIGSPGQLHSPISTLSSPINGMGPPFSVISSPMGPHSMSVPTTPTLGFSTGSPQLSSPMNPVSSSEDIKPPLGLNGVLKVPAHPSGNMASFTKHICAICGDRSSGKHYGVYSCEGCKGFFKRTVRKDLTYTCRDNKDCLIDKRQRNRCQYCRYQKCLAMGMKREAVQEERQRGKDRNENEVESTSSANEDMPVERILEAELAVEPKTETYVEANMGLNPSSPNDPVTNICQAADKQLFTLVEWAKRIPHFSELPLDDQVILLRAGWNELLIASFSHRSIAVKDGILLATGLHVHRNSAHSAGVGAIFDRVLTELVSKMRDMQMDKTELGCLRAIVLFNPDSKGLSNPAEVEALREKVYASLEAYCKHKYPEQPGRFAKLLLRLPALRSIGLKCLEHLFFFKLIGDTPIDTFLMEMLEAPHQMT

3T3-L1 cells = experiment: Gene expression by RT-PCR in 3T3-L1 cells; assay type: cell-based, mouse; conditions: 48 h, 10 μM rosiglitazone, 10 μM chiglitazar, vs vehicle
Description: cDNAs for human retinoid X receptor (hRXR), PPARα, PPARγ, and PPARδ were obtained by reverse transcriptase polymerase chain reaction (RT-PCR) from human liver or adipose tissues. Amplified cDNAs were cloned into pcDNA3.1 expression vector (Invitrogen, Carlsbad, CA, USA). The integrity and fidelity of all constructs made were verified by DNA sequencing. Luciferase reporter plasmids, ACOX promoter for PPARγ and pHD(X3)-luc for PPARα, were kind gifts of Drs. TM McIntyre (University of Utah, USA) and RA Rachubinski (University of Alberta, Canada), respectively. PPRE-luc for PPARδ was constructed based on the previous report by insertion of the annealed oligonucleotides having four copies of the CYP4A6 PPRE (4 × […]) into the upstream of the luciferase coding sequence in pGL3-promoter vector (Promega, Madison, WI, USA). pCMVβGal was purchased from Clontech (Palo Alto, CA, USA). The mouse 3T3-L1 preadipocyte cell line, skeletal muscle C2C12 cell line, and macrophage RAW267.4 cell line and the human osteosarcoma U2OS cell line were obtained from the American Type Culture Collection (ATCC, Rockville, MD, USA). […]
Total RNA was extracted from cells or tissues with an RNeasy minikit (Qiagen, Valencia, CA, USA). […] PCR products were analyzed by electrophoresis on a 1.5% agarose gel stained with ethidium bromide. […]

**Q.** How did the Body weight (KKAy mice; 5 and 20 mg kg^−1 oral daily, 12 days, in comparison with rosiglitazone 5 mg kg^−1) turn out when O=C(c1ccc(F)cc1)c1ccccc1NC(Cc1ccc(OCCn2c3ccccc3c3ccccc32)cc1)C(=O)O (centres unmarked) [Chi, 2-[(2-(4-fluorobenzoyl)phenyl)amino]-3-[4-(2-carbazolylethoxy)-phenyl]-propionic acid] was run?
**A.** did not increase

**Q.** And the “BG (blood glucose) levels” value (KKAy mice; oral daily, 5 to 20 mg kg^−1, 12 days)?
**A.** significantly lowered

**Q.** And the EC50 (PPARα; 24 h treatment, luciferase reporter, hRXR cotransfected, ia: inactive at 10 μM)?
**A.** 1200 ± 300 nM

**Q.** And the “PPARα % Max” value (PPARα; max response compared with WY at 50 μM)?
**A.** 147%

**Q.** And the “Expression of PPARγ downstream genes SREBP1 and adiponectin” value (3T3-L1 cells)?
**A.** upregulated
